Assay results taken from patent US7235532B2, “Angiogenic agents and their uses” (Centre National de la Recherche Scientfique, priority 2000, dated 2007).

Tests used:
[1] = system: immortalized HUVEC cell line (EA.hy926); experiment: growth of immortalized HUVEC cell line, in vitro; format: cell-based, human
Excerpt: (§1) FIGS. 1a, 1b and 1c: AcSDKP (SEQ ID NO: 1) stimulates the growth of bovine (BBC) and human (HUVEC and EA.hy926) endothelial cells, in vitro.
(§2) The mitogenic effect of AcSDKP (SEQ ID NO: 1) manifests itself at concentrations ranging between 10^−6 and 10^−11 M, with a maximum for 10^−9 M.

Sprague-Dawley rats = experiment: pedicled ventral skin flap model; format: in vivo, rat; conditions: 5 μg/kg/injection s.c., after surgery then 5 times at 12 hour intervals
Excerpt: Given the ability of angiogenic factors to stimulate, in vivo, the formation of new vessels in lesioned regions which are characterized by a deficiency in vascularization, we studied the effectiveness of AcSDKP (SEQ ID NO: 1) in promoting tissue lesion repair, using a skin flap model. In fact, the distal necrosis of skin flaps generally results from rupturing of the vascular network and therefore from an insufficiency of arterial flow, which poses considerable problems in the fields of plastic and reconstructive surgery.
Pedicled ventral skin flaps (6×6 cm) (left inguinal pedicle) were made in the Sprague-Dawley rats.
AcSDKP (SEQ ID NO: 1) was administered at the dose of 5 μg/kg/ injection (250 μl/injection) immediately after the surgical intervention, and then again 5 times at 12 hour intervals. […] From a macroscopic point of view, the decrease in necrosis is accompanied by the increase in the density of the vascularization over the internal surface of the flaps.

normal rats = experiment: angiography of abdominal walls after injection into abdominal muscle; format: in vivo, rat
Description: In these experiments, AcSDKP (SEQ ID NO: 1) was injected into the abdominal muscle in normal rats (treatment twice a day for […]). […] It should be emphasized that this effect remains over time (observations made one month after the start of treatment).

[2] = system: human umbilical cord vein endothelial cells (HUVEC); experiment: growth of human umbilical cord vein endothelial cells, in vitro; format: cell-based
Excerpt: as §1, §2

[3] = system: chick embryo chorioallantoic membrane; experiment: chick embryo chorioallantoic membrane (CAM) vascularization; format: in vivo
Description: FIGS. 2a, 2b and 2c: Effect of AcSDKP (SEQ ID NO: 1) and of analogues thereof on the vascularization of the chick embryo chorioallantoic membrane (CAM). FIG. 2A discloses SEQ ID NOS: 1 and 27, respectively, in order of appearance.
The following experiments were carried out on the chick embryo chorioallantoic membrane experimental model and the activity of AcSDKP (SEQ ID NO: 1) and of analogues thereof was tested on this model. […] The increase in the density of vascularization varies depending on the dose studied, with a maximum effect for AcSDKP (SEQ ID NO: 1) and AcSDKP-NH2 (SEQ ID NO: 27) at concentrations of between 10^−9 M and 10^−7 M (FIGS. 2a, 2b and 2c).

[4] = system: endothelial cells originating from bovine brain capillaries (BBC); experiment: growth of endothelial cells originating from bovine brain capillaries, in vitro; format: cell-based
Excerpt: as §1, §2

total marrow cells = experiment: adhesion of marrow cells to components of the extracellular matrix, in vitro; format: cell-based; conditions: fibronectin, collagen IV and laminin
Excerpt: The optimum concentration of AcSDKP (SEQ ID NO: 1) in this type of model is between 10^−6 and 10^−8 M.

[5] = system: endothelial cells (EA.hy926); experiment: formation of vascular tubes in Matrigel in vitro; format: cell-based, human; conditions: 6 hours exposure
Description: FIG. 3: Effect of AcSDKP (SEQ ID NO: 1) on the formation of vascular tubes, in vitro, by endothelial cells (EA.hy926) in Matrigel.
The maximum stimulations, corresponding to an increase of 60% and 58%, respectively, were observed after exposure of the cells to the tetrapeptide for 6 hours.

[6] = system: HUVEC human endothelial cells; experiment: adhesion of HUVEC to extracellular matrix components, preliminary experiments; format: cell-based; conditions: compared with marrow cell results
Excerpt: It is clearly established that these interactions between endothelial cells and the extracellular matrix are determinant for the neovascularization and are involved at various steps of angiogenesis. Specifically, the extracellular matrix influences the proliferation and the migration of vascular endothelial cells, and also their ability to differentiate and to organize into capillaries in order to form new functional vessels suited to their tissue microenvironment.

Sprague-Dawley rat = experiment: vascular invasion in vivo of Matrigel placed under the skin
Excerpt: In vivo, AcSDKP (SEQ ID NO: 1) induces, in a dose-dependent manner, the vascular invasion of Matrigel placed under the skin of the animal (Sprague-Dawley rat). In this experiment, AcSDKP (SEQ ID NO: 1) was mixed with the Matrigel before implantation. Seven days later, the animals were sacrificed and the Matrigel samples were taken and fixed in formol, and were the subject of a histological study. […] For the quantification, the vascular sections were counted on 10 consecutive fields (surface area =32 mm^2) from the richest zone.

CH3CO-Ser-Asp-Lys-Pro-OH (Ac-SDKP-OH) [AcSDKP, tetrapeptide acetyl-Ser-Asp-Lys-Pro]
concentration of maximum mitogenic effect ([1]; EA.hy926): 10^−9 M
growth of endothelial cells ([1]; EA.hy926, in vitro): significantly stimulates the growth
increase in survival of the flaps compared to the controls (Sprague-Dawley rats): 10%
vascularization of abdominal walls (angiography) (normal rats; 5 μg/kg/injection into abdominal muscle, twice a day, sacrifice day 8): more developed vascularization
vascularization of abdominal walls (angiography) (normal rats; 50 μg/kg/injection into abdominal muscle): No significant modification of the vascularization
concentration of maximum mitogenic effect [2]: 10^−9 M
growth of endothelial cells ([2]; in vitro): significantly stimulates the growth
neovascularization of CAM [3]: significantly induced neovascularization
concentration of maximum mitogenic effect [4]: 10^−9 M
growth of endothelial cells ([4]; in vitro): significantly stimulates the growth
adhesion of marrow cells to extracellular matrix components (total marrow cells): increases the adhesion
increase of total surface area of the vascular network compared to control (maximum stimulation) ([5]; 10^−9 M): 60%
increase of total surface area of the vascular network compared to control (maximum stimulation) ([5]; 10^−11 M): 58%
adhesion to extracellular matrix components [6]: Comparable results
Number of vessels (% increase compared to control) (Sprague-Dawley rat; 10^−5 M, Exp. 1): 60%
Number of vessels (% increase compared to control) (Sprague-Dawley rat; 10^−5 M, Exp. 2): 185%
Number of vessels (% increase compared to control) (Sprague-Dawley rat; 10^−6 M, Exp. 2): 121%
Number of vessels (% increase compared to control) (Sprague-Dawley rat; 10^−7 M, Exp. 1): 294%
Number of vessels (% increase compared to control) (Sprague-Dawley rat; 10^−7 M, Exp. 2): 118%
Number of vessels (% increase compared to control) (Sprague-Dawley rat; 10^−7 M, Exp. 3): 139%
Number of vessels (% increase compared to control) (Sprague-Dawley rat; 10^−8 M, Exp. 2): 223%
Number of vessels (% increase compared to control) (Sprague-Dawley rat; 10^−9 M, Exp. 1): 108%
Number of vessels (% increase compared to control) (Sprague-Dawley rat; 10^−9 M, Exp. 2): 61%
Number of vessels (% increase compared to control) (Sprague-Dawley rat; 10^−9 M, Exp. 3): 197%
vessels within the Matrigel compared to control Matrigel (Sprague-Dawley rat; mixed with Matrigel before implantation, 7 days): much greater number of vessels

CH3CO-Ser-Asp-Lys-Pro-NH2 [AcSDKP-NH2]
neovascularization of CAM [3]: significantly induced neovascularization

FGFb: fibroblast growth factor used as comparison angiogenic factor
Number of vessels (% increase compared to control) (Sprague-Dawley rat; 50 ng/ml, Exp. 2): 297%
